Measured values from patent publication US6258811A, “Methods for preventing, inhibiting or treating graft rejection reactions in graft-versus-host disease (GVHD) and organ transplantation” (Eisai Co., Ltd., priority 1996, dated 2001).

How the values were obtained:
RAR-α = biological target: T1, RAR-α (Homo sapiens, UniProt P10276); experiment: RAR-mediated transcriptional promotion activity, RAR-α; format: cell-based; conditions: ED30 of all-trans-retinoic acid taken as 1; 3 μM all-trans-retinoic acid = 100%
T1 sequence (P10276 1-462): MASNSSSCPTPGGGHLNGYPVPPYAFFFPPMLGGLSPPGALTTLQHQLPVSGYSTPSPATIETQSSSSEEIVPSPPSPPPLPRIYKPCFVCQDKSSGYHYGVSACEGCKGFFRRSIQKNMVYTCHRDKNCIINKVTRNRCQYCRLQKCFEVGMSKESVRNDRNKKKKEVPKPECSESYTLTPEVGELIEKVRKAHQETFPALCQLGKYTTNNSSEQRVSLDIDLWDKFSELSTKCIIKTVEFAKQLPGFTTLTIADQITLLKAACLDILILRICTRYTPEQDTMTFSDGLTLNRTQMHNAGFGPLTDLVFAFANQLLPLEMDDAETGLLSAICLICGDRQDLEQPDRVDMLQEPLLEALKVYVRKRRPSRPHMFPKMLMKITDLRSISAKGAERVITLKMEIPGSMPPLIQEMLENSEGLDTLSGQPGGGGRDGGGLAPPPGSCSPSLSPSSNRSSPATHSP
Description: (§1) Retinoic acid receptor (RAR) binding assay and RAR-mediated transcriptional promotion activity of compound represented by formula (I): […]

RAR-β [1] = biological target: T2, RAR-β (Homo sapiens, UniProt P10826); experiment: RAR-mediated transcriptional promotion activity, RAR-β; format: cell-based; conditions: ED30 of all-trans-retinoic acid taken as 1; 3 μM all-trans-retinoic acid = 100%
T2 sequence (P10826 1-455): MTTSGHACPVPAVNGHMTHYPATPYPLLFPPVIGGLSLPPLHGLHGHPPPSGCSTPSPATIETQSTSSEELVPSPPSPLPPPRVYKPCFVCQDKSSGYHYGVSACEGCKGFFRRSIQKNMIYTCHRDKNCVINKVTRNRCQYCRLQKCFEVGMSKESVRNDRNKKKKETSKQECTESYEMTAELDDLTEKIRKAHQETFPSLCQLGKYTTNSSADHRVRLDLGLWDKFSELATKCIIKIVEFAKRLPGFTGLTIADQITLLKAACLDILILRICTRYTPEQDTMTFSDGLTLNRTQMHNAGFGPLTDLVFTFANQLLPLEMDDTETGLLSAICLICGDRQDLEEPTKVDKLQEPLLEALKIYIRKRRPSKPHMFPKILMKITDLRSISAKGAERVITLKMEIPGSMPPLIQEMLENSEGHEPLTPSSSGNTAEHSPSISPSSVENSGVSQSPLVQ
Description: as §1

RAR-γ = biological target: T3, RAR-γ (Homo sapiens, UniProt P13631); experiment: RAR-mediated transcriptional promotion activity, RAR-γ; format: cell-based; conditions: ED30 of all-trans-retinoic acid taken as 1; 3 μM all-trans-retinoic acid = 100%
T3 sequence (P13631 1-454): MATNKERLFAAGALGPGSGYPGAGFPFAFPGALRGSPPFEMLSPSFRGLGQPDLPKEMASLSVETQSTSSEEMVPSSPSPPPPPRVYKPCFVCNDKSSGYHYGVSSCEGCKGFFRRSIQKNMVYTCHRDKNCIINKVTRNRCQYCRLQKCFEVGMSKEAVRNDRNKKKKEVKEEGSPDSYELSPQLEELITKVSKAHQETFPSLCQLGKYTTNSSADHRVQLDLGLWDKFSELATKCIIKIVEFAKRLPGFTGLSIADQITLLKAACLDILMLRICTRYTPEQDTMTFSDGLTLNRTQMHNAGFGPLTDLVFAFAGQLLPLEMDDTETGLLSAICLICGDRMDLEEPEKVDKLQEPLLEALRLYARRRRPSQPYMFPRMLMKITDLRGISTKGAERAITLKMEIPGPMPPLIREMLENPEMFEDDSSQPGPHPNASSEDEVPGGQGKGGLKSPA
Description: as §1

patients = conditions: background; cited from earlier work
chronic GVHD = conditions: cyclosporin A and prednisolone, bone marrow transplantation patients; cited from earlier work
RAR-β [2] = biological target: T2, RAR-β; experiment: Receptor binding assay, RAR-β
Description: as §1

immune system = conditions: background; cited from earlier work
rat adjuvant arthritis = conditions: Science 221, 756, 1983; cited from earlier work
[3] = system: serum antiDNA antibody titer (IgG class); experiment: Chronic GVHD model: serum antiDNA antibody titer (ELISA); format: in vivo, mice (BDF1 hosts, DBA/2 donors); conditions: oral, once a day, two weeks after cell transfer
Description: (§2) A graft-versus-host disease (GVHD) model experiment was effected in accordance with the method reported by Durei et al. (J. Clin. Invest., 94, 1333 1994.).
(§3) As the indication of an acute GVHD model (1), use was made of the cytotoxic T cell activity of a donor on a host. As the indication of a chronic GVHD model (2), use was made of the blood antiDNA antibody titer.
In the transplantation, BDF1 mice (H-2b/d) and DBA/2 mice (H-2d) were employed respectively as the hosts and donors. 5×10^7 /mouse of donors' spleen cells were transferred into the hosts via the tail vein. 4-{2-[5-(4,7-Dimethylbenzofuran-2-yl)pyrrolyl]}benzoic acid was dissolved in a 0.5% aqueous solution of methylcellulose and then orally administered to the hosts once a day from the first day of the cell transfer to the day before the blood sampling. The 0.5% aqueous solution of methylcellulose alone was similarly administered to the control group. Two weeks after the cell transfer, the blood of each host animal was sampled and the serum antiDNA antibody titer (IgG class) was measured by the ELISA method.

P-815(H-2d) = experiment: Acute GVHD model: cytotoxic T cell activity of donor on host; format: in vivo, mice (BDF1 hosts, C57BL/6N donors); conditions: oral, once a day, 12 to 13 days after cell transfer
Description: as §2, §3
In the transplantation, BDF1 mice (H-2b/d) and C57BL/6N mice (H-2b) were employed respectively as the hosts and donors. 5×10^7 /mouse of donors' spleen cells were transferred into the hosts via the tail vein. 4-{2-[5-(4,7-Dimethylbenzofuran-2-yl)pyrrolyl]}benzoic acid (compound A) was suspended in a 0.5% aqueous solution of methylcellulose and then orally administered to the hosts once a day from the first day of the cell transfer to the day before the measurement of the cytotoxic T cell activity. The 0.5% aqueous solution of methylcellulose alone was similarly administered to the control group. 12 to 13 days after the cell transfer, the spleen of each host animal was taken out and a suspension of the spleen cells to be used as effector cells was prepared. As the target cells, use was made of P-815(H-2d) which were cultured together with the effector cells for 4 hours. The cytotoxicity (%) was expressed as the percentage of ^51 Cr liberated into the culture supernatant during this culture time to the total radioactivity.

| Structure (SMILES) | Transcriptional promotion activity, Relative ED30, RAR-α (RAR-α) | Transcriptional promotion activity, Relative ED30, RAR-β (RAR-β [1]) | Transcriptional promotion activity, Relative ED30, RAR-γ (RAR-γ) | further results |
| --- | --- | --- | --- | --- |
| Cc1ccc(C)c2oc(-c3ccc(-c4ccc(C(=O)O)cc4)[nH]3)cc12 [drawing 14] | 0.4 | 13 | 191 |  |
| C[C@]12C=CC(=O)C=C1CC[C@@H]1[C@@H]2[C@@H](O)C[C@@]2(C)[C@H]1CC[C@]2(O)C(=O)CO [prednisolone] |  |  |  | side effects (patients): induced infectious diseases, peptic ulcer, etc.; effect on chronic GVHD (chronic GVHD): no satisfactory effect |
| O=C(O)c1ccc(-c2ccc(-c3cc4c(F)ccc(Cl)c4o3)[nH]2)cc1 | 0.33 | 91 | 790 |  |
| O=C(O)c1ccc(-c2ccc(-c3cc4c(Cl)ccc(Cl)c4o3)[nH]2)cc1 [drawing 8] |  |  |  | IC50 (RAR-β [2]): 500 nM |
| O=C(O)c1ccc(-c2ccc(-c3cc4c(Cl)ccc(Cl)c4o3)[nH]2)cc1 [drawing 15] | 1.0 | 160 | 1400 |  |
| CC1=C(/C=C/C(C)=C/C=C/C(C)=C/C(=O)O)C(C)(C)CCC1 [retinoic acid] |  |  |  | effect on the immune system (immune system): suppressive effect on the immune system |
| CCc1ccc(C)c2cc(-c3ccc(-c4ccc(C(=O)O)cc4)[nH]3)oc12 | 0.26 | 24 | 120 |  |
| Cn1cnc([N+](=O)[O-])c1Sc1ncnc2nc[nH]c12 [azathioprine] |  |  |  | side effects (patients): bone marrow depression, hepatic disorder, pancreatitis, digestive tract symptoms, cardiopalmus and respiratory disorder |
| CN(Cc1cnc2nc(N)nc(N)c2n1)c1ccc(C(=O)N[C@@H](CCC(=O)O)C(=O)O)cc1 [methotrexate] |  |  |  | side effects (patients): bone marrow depression, hepatic/renal function disorder, mucosal disorder, psychoneurosis, interstitial pneumonia, pulmonary fibrosis, etc. |
| CC1=C(/C=C/C(C)=C/C=C/C(C)=C\C(=O)O)C(C)(C)CCC1 [13-cis-retinoic acid] |  |  |  | secondary inflammation in rat adjuvant arthritis (rat adjuvant arthritis): significantly suppressed |
| CC1(C)CCC(C)(C)c2nc(-c3ccc(-c4ccc(C(=O)O)cc4)[nH]3)cnc21 | 0.21 | 1.4 | 19 |  |
| C=CC[C@@H]1/C=C(\C)C[C@H](C)C[C@H](OC)[C@H]2O[C@@](O)(C(=O)C(=O)N3CCCC[C@H]3C(=O)O[C@H](/C(C)=C/[C@@H]3CC[C@@H](O)[C@H](OC)C3)[C@H](C)[C@@H](O)CC1=O)[C@H](C)C[C@@H]2OC [tacrolimus (FK 506), tacrolimus] |  |  |  | side effects (patients): renal function disorder, shock, elevation of blood pressure, heart failure, pancreatitis,hemolytic-uremic syndrome, thrombotic thrombopenia, purpura and hyperglycemia |
| O=C(O)c1ccc(-c2ccc(-c3cc4c(C(F)(F)F)ccc(F)c4o3)[nH]2)cc1 | 0.33 | 8.1 | 95 |  |
| Cc1ccc(C)c2c(F)c(-c3ccc(-c4ccc(C(=O)O)cc4)[nH]3)oc12 | 0.39 | 2.8 | 31 |  |
| Cc1ccc(C)c2oc(-c3ccc(-c4ccc(C(=O)O)cc4)[nH]3)cc12 [compound A, 4-{2-[5-(4,7-Dimethylbenzofuran-2-yl)pyrrolyl]}benzoic acid] |  |  |  | minimal effective dose ([3]; Mus musculus, 336 h, read-out: dose from which serum antiDNA antibody titer was inhibited dose-dependently): ≥ 0.3 mg/kg; serum antiDNA antibody titer [3]: strongly inhibited the serum antiDNA antibody titer dose-dependently; minimal effective dose (P-815(H-2d); Mus musculus, P815, read-out: dose from which induction of the cytotoxic T cell activity was inhibited dose-dependently): ≥ 0.1 mg/kg; induction of the cytotoxic T cell activity (P-815(H-2d)): strongly inhibited the induction of the cytotoxic T cell activity dose-dependently |
